Laboratory results as given in US6355799B1, “Substituted benzene compounds, process for their preparation, and herbicidal and defoliant compositions containing them” (ISK Americas Incorporated, priority 1997, dated 2002).

What was measured:
Type in all cases: in vivo
[1] = tested on: field corn (Zea mays L., var. Dekalb 535, CORN); assay: Post-emerge test, crop safety; conditions: rating scale 0-100 (0 no damage, 100 complete death), 14 days after application
Summary of the method: (§1)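 Rating: 0–100 visual injury, 14 DAA. Application: acetone, 187 l/ha, 15–1000 g ai/ha, flat-fan track sprayer with nozzle 40–45 cm above soil or canopy. Post-emerge runs used 0.25% v/v surfactant on 2–3 leaf plants.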

[2] = tested on: upland rice (Oryza sp., var. Tebonnet, RICE); assay: Post-emerge test, crop safety; conditions: rating scale 0-100 (0 no damage, 100 complete death), 14 days after application
Summary of the method: as §1

[3] = tested on: field corn (Zea mays L., var. Dekalb 535, CORN); assay: Pre-emerge test, crop safety; conditions: rating scale 0-100, 14 days after application
Summary of the method: (§2)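 Herbicidal damage is scored 0 (none) to 100 (complete plant death) two weeks after a simulated field spray. Rates span 15–1000 g ai/ha, delivered in acetone at 187 l/ha. For post-emergence treatments, plants have 2–3 leaves and the spray carries 0.25% v/v non-ionic surfactant.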

[4] = tested on: upland rice (Oryza sp., var. Tebonnet, RICE); assay: Pre-emerge test, crop safety; conditions: rating scale 0-100, 14 days after application
Summary of the method: as §2

[5] = tested on: lambsquarters (Chenopodium album, CHEAL); assay: Post-emerge test, greenhouse herbicide activity screening; conditions: rating scale 0-100 (0 no damage, 100 complete death), 14 days after application
Summary of the method: (§3)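 Fourteen days after spraying, crop and weed injury was graded visually from 0, no effect, to 100, every plant dead. Test substances were dissolved in acetone and applied at 15–1000 g ai/ha with a flat-fan nozzle. Application was either pre-emergence, one day after sowing, or post-emergence at the 2–3 leaf stage.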

[6] = tested on: barnyardgrass (Echinochloa crus-galli, ECHCG); assay: as above; conditions: rating scale 0-100 (0 no damage, 100 complete death), 14 days after application
Summary of the method: as §3

[7] = tested on: sicklepod (Cassia obtusifolia, CASOB); assay: as above; conditions: rating scale 0-100 (0 no damage, 100 complete death), 14 days after application
Summary of the method: as §3

[8] = tested on: redroot pigweed (Amaranthus retroflexus, AMARE); assay: as above; conditions: rating scale 0-100 (0 no damage, 100 complete death), 14 days after application
Summary of the method: as §3

[9] = tested on: johnsongrass (Sorghum halepense, SORHA); assay: as above; conditions: rating scale 0-100 (0 no damage, 100 complete death), 14 days after application
Summary of the method: as §3

[10] = tested on: green foxtail (Setaria viridis, SETVI); assay: as above; conditions: rating scale 0-100 (0 no damage, 100 complete death), 14 days after application
Summary of the method: as §3

[11] = tested on: velvetleaf (Abutilon theophrasti, ABUTH); assay: as above; conditions: rating scale 0-100 (0 no damage, 100 complete death), 14 days after application
Summary of the method: as §3

[12] = tested on: large crabgrass (Digitaria sanguinalis, DIGSA); assay: as above; conditions: rating scale 0-100 (0 no damage, 100 complete death), 14 days after application
Summary of the method: as §3

[13] = tested on: ivyleaf morningglory (Ipomoea hederacea, IPOHE); assay: as above; conditions: rating scale 0-100 (0 no damage, 100 complete death), 14 days after application
Summary of the method: as §3

[14] = tested on: redroot pigweed (Amaranthus retroflexus, AMARE); assay: Pre-emerge test, greenhouse herbicide activity screening; conditions: rating scale 0-100, 14 days after application
Summary of the method: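 Plants grown in 10 cm pots of sandy loam mix received acetone-dissolved compounds through a moving flat-fan nozzle. Doses ranged from 15 to 1000 g ai/ha. Pre-emerge pots were seeded one day earlier, post-emerge pots 8–21 days earlier. Fourteen days on, each pot was graded 0–100 for damage.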

[15] = tested on: lambsquarters (Chenopodium album, CHEAL); assay: as above; conditions: rating scale 0-100, 14 days after application
Summary of the method: (§4)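 Compounds in acetone were track-sprayed at 15–1000 g ai/ha: pre-emergence onto soil sown the previous day, then top-watered to incorporate and later bottom-watered; post-emergence onto 2–3 leaf plants with 0.25% v/v surfactant, bottom-watered only. Ratings on a 0–100 phytotoxicity scale were taken at day 14.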

[16] = tested on: barnyardgrass (Echinochloa crus-galli, ECHCG); assay: as above; conditions: rating scale 0-100, 14 days after application
Summary of the method: as §4

[17] = tested on: sicklepod (Cassia obtusifolia, CASOB); assay: as above; conditions: rating scale 0-100, 14 days after application
Summary of the method: as §4

[18] = tested on: johnsongrass (Sorghum halepense, SORHA); assay: as above; conditions: rating scale 0-100, 14 days after application
Summary of the method: as §4

[19] = tested on: green foxtail (Setaria viridis, SETVI); assay: as above; conditions: rating scale 0-100, 14 days after application
Summary of the method: as §4

[20] = tested on: velvetleaf (Abutilon theophrasti, ABUTH); assay: as above; conditions: rating scale 0-100, 14 days after application
Summary of the method: as §4

[21] = tested on: large crabgrass (Digitaria sanguinalis, DIGSA); assay: as above; conditions: rating scale 0-100, 14 days after application
Summary of the method: as §4

[22] = tested on: ivyleaf morningglory (Ipomoea hederacea, IPOHE); assay: as above; conditions: rating scale 0-100, 14 days after application
Summary of the method: as §4

SMILES: COc1c(Cl)cc(F)c(-n2c(=O)cc(C(F)(F)F)n(C)c2=O)c1CC(Cl)C(=O)OCC(Br)CBr (single isomer, unassigned) [14-31]
- Post-emerge phytotoxicity rating CORN (crop damage) ([1]; Rate 63 g ai/ha): 10
- Post-emerge phytotoxicity rating CORN (crop damage) ([1]; Rate 250 g ai/ha): 50
- Post-emerge phytotoxicity rating RICE (crop damage) ([2]; Rate 63 g ai/ha): 0
- Post-emerge phytotoxicity rating RICE (crop damage) ([2]; Rate 250 g ai/ha): 0
- Pre-emerge phytotoxicity rating, crop damage CORN ([3]; 63 g ai/ha): 0
- Pre-emerge phytotoxicity rating, crop damage CORN ([3]; 250 g ai/ha): 30
- Pre-emerge phytotoxicity rating, crop damage RICE ([4]; 63 g ai/ha): 0
- Pre-emerge phytotoxicity rating, crop damage RICE ([4]; 250 g ai/ha): 0
- Post-emerge Herbicidal Activity, phytotoxicity rating CHEAL ([5]; Rate 63 g ai/ha): 70
- Post-emerge Herbicidal Activity, phytotoxicity rating CHEAL ([5]; Rate 250 g ai/ha): 90
- Post-emerge Herbicidal Activity, phytotoxicity rating ECHCG ([6]; Rate 63 g ai/ha): 100
- Post-emerge Herbicidal Activity, phytotoxicity rating ECHCG ([6]; Rate 250 g ai/ha): 100
- Post-emerge Herbicidal Activity, phytotoxicity rating CASOB ([7]; Rate 63 g ai/ha): 50
- Post-emerge Herbicidal Activity, phytotoxicity rating CASOB ([7]; Rate 250 g ai/ha): 50
- Post-emerge Herbicidal Activity, phytotoxicity rating AMARE ([8]; Rate 63 g ai/ha): 90
- Post-emerge Herbicidal Activity, phytotoxicity rating AMARE ([8]; Rate 250 g ai/ha): 100
- Post-emerge Herbicidal Activity, phytotoxicity rating SORHA ([9]; Rate 63 g ai/ha): 0
- Post-emerge Herbicidal Activity, phytotoxicity rating SORHA ([9]; Rate 250 g ai/ha): 20
- Post-emerge Herbicidal Activity, phytotoxicity rating SETVI ([10]; Rate 63 g ai/ha): 0
- Post-emerge Herbicidal Activity, phytotoxicity rating SETVI ([10]; Rate 250 g ai/ha): 50
- Post-emerge Herbicidal Activity, phytotoxicity rating ABUTH ([11]; Rate 63 g ai/ha): 90
- Post-emerge Herbicidal Activity, phytotoxicity rating ABUTH ([11]; Rate 250 g ai/ha): 100
- Post-emerge Herbicidal Activity, phytotoxicity rating DIGSA ([12]; Rate 63 g ai/ha): 95
- Post-emerge Herbicidal Activity, phytotoxicity rating DIGSA ([12]; Rate 250 g ai/ha): 100
- Post-emerge Herbicidal Activity, phytotoxicity rating IPOHE ([13]; Rate 63 g ai/ha): 10
- Post-emerge Herbicidal Activity, phytotoxicity rating IPOHE ([13]; Rate 250 g ai/ha): 70
- Pre-emerge herbicidal activity, phytotoxicity rating AMARE ([14]; 63 g ai/ha): 70
- Pre-emerge herbicidal activity, phytotoxicity rating AMARE ([14]; 250 g ai/ha): 100
- Pre-emerge herbicidal activity, phytotoxicity rating CHEAL ([15]; 63 g ai/ha): 40
- Pre-emerge herbicidal activity, phytotoxicity rating CHEAL ([15]; 250 g ai/ha): 50
- Pre-emerge herbicidal activity, phytotoxicity rating ECHCG ([16]; 63 g ai/ha): 0
- Pre-emerge herbicidal activity, phytotoxicity rating ECHCG ([16]; 250 g ai/ha): 0
- Pre-emerge herbicidal activity, phytotoxicity rating CASOB ([17]; 63 g ai/ha): 0
- Pre-emerge herbicidal activity, phytotoxicity rating CASOB ([17]; 250 g ai/ha): 0
- Pre-emerge herbicidal activity, phytotoxicity rating SORHA ([18]; 63 g ai/ha): 0
- Pre-emerge herbicidal activity, phytotoxicity rating SORHA ([18]; 250 g ai/ha): 0
- Pre-emerge herbicidal activity, phytotoxicity rating SETVI ([19]; 63 g ai/ha): 0
- Pre-emerge herbicidal activity, phytotoxicity rating SETVI ([19]; 250 g ai/ha): 0
- Pre-emerge herbicidal activity, phytotoxicity rating ABUTH ([20]; 63 g ai/ha): 0
- Pre-emerge herbicidal activity, phytotoxicity rating ABUTH ([20]; 250 g ai/ha): 70
- Pre-emerge herbicidal activity, phytotoxicity rating DIGSA ([21]; 63 g ai/ha): 0
- Pre-emerge herbicidal activity, phytotoxicity rating DIGSA ([21]; 250 g ai/ha): 90
- Pre-emerge herbicidal activity, phytotoxicity rating IPOHE ([22]; 63 g ai/ha): 0
- Pre-emerge herbicidal activity, phytotoxicity rating IPOHE ([22]; 250 g ai/ha): 50
